Reference: US8076324B2, “Di(hetero)arylcyclohexane derivatives, their preparation, their use and pharmaceutical compositions comprising them” (Sanofi-Aventis, priority 2007, dated 2011)

Molecular target: T1, myocardial ATP-sensitive potassium channel (SUR2A/Kir6.2) (UniProt Q61743+Q63563)
T1 construct: expressed in transfected cells
Experiment: Rubidium efflux test on HEK293 cells transfected with SUR2A and Kir6.2 (myocardial action)
Format: cell-based, SUR2A from the rat, Kir6.2 from the mouse
Conditions: HEK293 cells transfected with SUR2A/Kir6.2; KATP channels opened by rilmakalim; 25 min incubation; read-out: IC50 values for the inhibition of the rubidium efflux
Method: 1) Action on the SUR2A/Kir6.2 potassium channel (myocardial action) The action of the compounds on the ion transport through the myocardial ATP-sensitive potassium channel (SUR2A/Kir6.2) was determined in the rubidium efflux test system described below on human embryonic kidney cells HEK293 which were transfected with the components SUR2A and Kir6.2 (cf. Weyermann et al., Naunyn-Schmiedeberg's Arch. Pharmacol. 369, 374-381 (2004)).
The HEK293 cells were cultured at 37° C. in a humidified air atmosphere with 7% carbon dioxide in minimal essential medium with Earle's salts and L-glutamine (MEM, Gibco), which was supplemented with 10% fetal calf serum and zeozin (0.36 mg/ml) and geneticin (0.75 mg/ml). The transfection of the cells and the preparation of a cell line with stable expression of Kir6.2 from the mouse (accession number AF037313) and SUR2A from the rat (accession number D83598/L40624) were carried out as described in Giblin et al., J. Biol. Chem. 274, 22652-22659 (1999).
60 000 transfected cells per well were inoculated into a poly-D-lysine-coated 96-well microtiter plate (Greiner #650 201). After incubation for 24 h at 37° C., the cells were washed three times with buffer 1 (150 mM NaCl, 2 mM CaCl2, 0.8 mM NaH2PO4, 1 mM MgCl2, 5 mM glucose, 25 mM HEPES, pH=7.4). Subsequently, the buffer solution was replaced by 100 μl of rubidium loading buffer (buffer 1 with 5.4 mM RbCl) and the cells were incubated for a further 3 h at 37° C. The rubidium loading buffer was then removed by washing the cells three times with 200 μl each of potassium chloride wash buffer (buffer 1 with 5.4 mM KCl). After addition of the test substances (70 μl; dissolved in potassium chloride wash buffer with addition of DMSO), the KATP channels of the cells were opened by addition of 70 μl of rilmakalim (2 μM) (cf. Krause et al., Pflügers Arch. 429, 625-635 (1995)) and the cells were incubated at 37° C. for 25 min. Subsequently, the cell supernatants were transferred to a new 96-well microtiter plate and the cells were lyzed by addition of 200 μl of lysis buffer (buffer 1 with 1% Triton X-100). The concentrations of Rb^+ in the cell supernatant and in the cell lyzate were measured by means of atomic absorption spectroscopy using an Al 1200 apparatus (Aurora Instruments Ltd.).
The Rb^+ efflux rate was calculated as [Rb^+SN]/[Rb^+total], wherein [Rb^+SN] is the amount of Rb^+ in the cell supernatant and [Rb^+total] is the sum of the amounts of Rb^+ in the cell supernatant and cell lyzate. IC50 values for the inhibition of the rubidium efflux were calculated with the aid of the Hill equation.

T1 sequence (Q63563 whole entry): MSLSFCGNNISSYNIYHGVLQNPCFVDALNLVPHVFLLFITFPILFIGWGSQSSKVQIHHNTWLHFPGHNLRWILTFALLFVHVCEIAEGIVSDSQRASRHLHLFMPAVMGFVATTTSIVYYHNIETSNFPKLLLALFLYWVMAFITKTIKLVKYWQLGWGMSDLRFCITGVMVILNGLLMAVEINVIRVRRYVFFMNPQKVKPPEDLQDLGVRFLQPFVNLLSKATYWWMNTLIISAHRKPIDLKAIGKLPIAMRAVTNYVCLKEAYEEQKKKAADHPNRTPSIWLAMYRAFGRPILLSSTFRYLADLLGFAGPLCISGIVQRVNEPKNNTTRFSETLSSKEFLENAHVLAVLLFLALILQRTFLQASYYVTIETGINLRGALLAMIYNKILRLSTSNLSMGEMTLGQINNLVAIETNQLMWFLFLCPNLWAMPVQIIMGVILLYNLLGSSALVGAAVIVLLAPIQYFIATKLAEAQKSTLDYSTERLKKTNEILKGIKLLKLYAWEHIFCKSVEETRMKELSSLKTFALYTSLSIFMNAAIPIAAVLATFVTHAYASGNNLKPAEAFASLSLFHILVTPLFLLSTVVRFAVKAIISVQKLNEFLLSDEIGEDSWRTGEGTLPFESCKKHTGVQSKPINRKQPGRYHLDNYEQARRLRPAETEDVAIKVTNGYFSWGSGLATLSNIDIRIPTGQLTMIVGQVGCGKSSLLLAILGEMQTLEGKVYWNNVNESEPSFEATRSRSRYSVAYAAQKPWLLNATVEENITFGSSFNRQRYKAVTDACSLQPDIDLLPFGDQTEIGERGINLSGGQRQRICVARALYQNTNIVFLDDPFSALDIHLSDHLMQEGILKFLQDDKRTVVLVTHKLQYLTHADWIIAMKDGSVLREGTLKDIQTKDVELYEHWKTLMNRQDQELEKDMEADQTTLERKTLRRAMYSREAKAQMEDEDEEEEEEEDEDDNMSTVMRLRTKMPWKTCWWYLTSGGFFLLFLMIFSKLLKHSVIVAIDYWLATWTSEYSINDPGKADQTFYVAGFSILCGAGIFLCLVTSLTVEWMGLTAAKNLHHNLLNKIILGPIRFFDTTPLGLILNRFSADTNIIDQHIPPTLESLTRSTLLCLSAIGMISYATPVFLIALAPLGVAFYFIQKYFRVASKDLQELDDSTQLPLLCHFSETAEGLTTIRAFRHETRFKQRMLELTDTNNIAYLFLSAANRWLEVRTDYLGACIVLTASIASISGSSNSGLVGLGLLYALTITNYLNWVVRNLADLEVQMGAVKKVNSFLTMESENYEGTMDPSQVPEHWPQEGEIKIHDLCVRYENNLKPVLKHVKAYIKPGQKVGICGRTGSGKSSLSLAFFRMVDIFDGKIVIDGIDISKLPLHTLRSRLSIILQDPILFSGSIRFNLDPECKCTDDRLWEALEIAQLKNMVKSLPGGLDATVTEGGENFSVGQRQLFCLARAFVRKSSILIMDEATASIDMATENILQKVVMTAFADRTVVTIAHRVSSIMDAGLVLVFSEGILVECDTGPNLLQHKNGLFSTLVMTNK
T1 sequence (Q61743 whole entry): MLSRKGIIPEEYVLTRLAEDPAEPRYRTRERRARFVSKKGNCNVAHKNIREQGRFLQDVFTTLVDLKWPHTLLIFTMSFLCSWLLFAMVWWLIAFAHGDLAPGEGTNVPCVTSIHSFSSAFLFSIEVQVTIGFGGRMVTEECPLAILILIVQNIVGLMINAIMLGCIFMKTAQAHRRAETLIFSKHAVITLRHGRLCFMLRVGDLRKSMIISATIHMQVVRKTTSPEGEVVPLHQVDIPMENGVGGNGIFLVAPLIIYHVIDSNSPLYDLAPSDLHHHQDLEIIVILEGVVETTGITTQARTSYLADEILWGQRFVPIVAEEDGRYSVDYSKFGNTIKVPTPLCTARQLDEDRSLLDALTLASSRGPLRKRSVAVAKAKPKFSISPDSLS

Compound | IC50 [nM]
CC(C)(C)S(=O)(=O)c1cc(F)cc([C@]2(OCC3CC3)CC[C@](C(=O)O)(c3ccc(F)cc3)CC2)c1 [Example 304-3, Cis-4-Cyclopropylmethoxy-4-[3-fluoro-5-(2-methylpropane-2-sulfonyl)phenyl]-1-(4-fluorophenyl)cyclohexanecarboxylic Acid] | < 1000
Cc1c(F)cc([C@]2(OCC3CC3)CC[C@](C(=O)O)(c3ccc(F)cc3)CC2)cc1S(=O)(=O)C(C)C [Example 304-4, Cis-4-Cyclopropylmethoxy-4-[3-fluoro-4-methyl-5-(propane-2-sulfonyl)phenyl]-1-(4-fluorophenyl)cyclohexanecarboxylic Acid] | < 1000
O=C(O)C1(c2ccccc2)CCC(OCCC2CC2)(c2ccc(F)cc2)CC1 (stereo not drawn) [Example 306, 4-(2-Cyclopropylethoxy)-4-(4-fluorophenyl)-1-phenylcyclohexanecarboxylic Acid] | < 1000
COc1ccc(-c2cc([C@]3(OCC4CC4)CC[C@@](C(=O)O)(c4ccccc4)CC3)n(CC3CC3)n2)cc1 [Example 319, Trans-4-Cyclopropylmethoxy-4-[2-cyclopropylmethyl-5-(4-methoxyphenyl)-2H-pyrazol-3-yl]-1-phenylcyclohexanecarboxylic Acid] | < 1000
O=C(O)[C@]1(c2ccccc2)CC[C@@](OCC2CC2)(c2nc(-c3ccccc3)cs2)CC1 [Example 333-1, Cis-4-Cyclopropylmethoxy-1-phenyl-4-(4-phenylthiazol-2-yl)cyclohexanecarboxylic Acid] | < 1000
O=C(O)[C@]1(c2ccccc2)CC[C@](OCC2CC2)(c2nc(-c3ccccc3)cs2)CC1 [Example 333-2, Trans-4-Cyclopropylmethoxy-1-phenyl-4-(4-phenylthiazol-2-yl)cyclohexanecarboxylic Acid] | < 1000
O=C(O)[C@]1(c2ccc(F)cc2)CC[C@@](OCC2CC2)(c2nccn2CC2CC2)CC1 [Example 364] | < 1000
Cc1nc([C@]2(OCC3CC3)CC[C@](C(=O)O)(c3ccc(F)cc3)CC2)n(CC2CC2)c1C [Example 365] | < 1000
O=C(O)[C@]1(c2ccc(F)cc2)CC[C@@](OCC2CC2)(c2nc3ccccc3n2CC2CC2)CC1 [Example 366] | < 1000
Cc1cn(CC2CC2)c([C@]2(OCC3CC3)CC[C@](C(=O)O)(c3ccc(F)cc3)CC2)n1 [Example 368] | < 1000
Cc1nc([C@]2(OCC3CC3)CC[C@@](C(=O)O)(c3ccc(F)cc3)CC2)n(CC2CC2)c1Br [Example 369] | < 1000
CC(C)CCO[C@]1(c2nccn2CC2CC2)CC[C@@](C(=O)O)(c2ccc(F)cc2)CC1 [Example 370] | < 1000
Cc1nc([C@]2(OCCC(C)C)CC[C@](C(=O)O)(c3ccc(F)cc3)CC2)n(CC2CC2)c1C [Example 372] | < 1000
Cc1c(Br)nc([C@]2(OCC3CC3)CC[C@](C(=O)O)(c3ccccc3)CC2)n1CC1CC1 [Example 373] | < 1000
Cc1c(Br)nc([C@]2(OCCC(C)C)CC[C@](C(=O)O)(c3ccccc3)CC2)n1CC1CC1 [Example 374] | < 1000
Cc1nc([C@]2(OCCC(C)C)CC[C@](C(=O)O)(c3ccccc3)CC2)n(CC2CC2)c1Br [Example 375] | < 1000
Cc1nc([C@]2(OCCC(C)C)CC[C@](C(=O)O)(c3ccccc3)CC2)n(CC2CC2)c1C [Example 376] | < 1000
Cc1nc([C@]2(OCC3CC3)CC[C@](C(=O)O)(c3ccccc3)CC2)n(CC2CC2)c1C [Example 377] | < 1000
O=C(O)[C@]1(c2ccccc2)CC[C@@](OCC2CC2)(c2ncc(C(F)(F)F)n2CC2CC2)CC1 [Example 378] | < 1000
O=C(O)[C@]1(c2ccccc2)CC[C@](OCC2CC2)(c2ncc(C(F)(F)F)n2CC2CC2)CC1 [Example 379] | < 1000
O=C(O)[C@]1(c2ccccc2)CC[C@@](OCC2CC2)(c2nc(C(F)(F)F)cn2CC2CC2)CC1 [Example 380] | < 1000
O=C(O)[C@]1(c2ccccc2)CC[C@](OCC2CC2)(c2nc(C(F)(F)F)cn2CC2CC2)CC1 [Example 381] | < 1000
Cc1nc([C@]2(OCC3CC3)CC[C@](C(=O)O)(c3ccccc3)CC2)n(CC2CC2)c1Cl [Example 382] | < 1000

Compound | IC50 [nM]
Cc1c(Cl)nc([C@]2(OCC3CC3)CC[C@](C(=O)O)(c3ccccc3)CC2)n1CC1CC1 [Example 383] | < 1000
Cc1nc([C@]2(OCC3(C)COC3)CC[C@](C(=O)O)(c3ccccc3)CC2)n(CC2CC2)c1Cl [Example 385] | < 1000
O=C(O)[C@]1(c2ccccc2)CC[C@@](OCC2CC2)(c2nc(Cl)c(Cl)n2CC2CC2)CC1 [Example 387] | < 1000
CCCn1c(Cl)c(C)nc1[C@]1(OCC2CC2)CC[C@](C(=O)O)(c2ccccc2)CC1 [Example 388] | < 1000
CCCn1c(Cl)c(C)nc1[C@]1(OCCC(C)(C)C)CC[C@](C(=O)O)(c2ccccc2)CC1 [Example 389] | < 1000
CCCn1c(Cl)c(C)nc1[C@]1(OCCOC)CC[C@](C(=O)O)(c2ccccc2)CC1 [Example 390] | < 1000
Cc1nc([C@]2(OCC3CC3)CC[C@](C(=O)O)(c3ccccc3)CC2)n(C)c1Cl [Example 391] | < 1000
Cc1nc([C@]2(OCCC(C)(C)C)CC[C@](C(=O)O)(c3ccccc3)CC2)n(C)c1Cl [Example 392] | < 1000
CC(C)(C)c1nc([C@]2(OCC3CC3)CC[C@](C(=O)O)(c3ccccc3)CC2)n(CC2CC2)c1Cl [Example 393] | < 1000
CC(C)c1nc([C@]2(OCC3CC3)CC[C@](C(=O)O)(c3ccccc3)CC2)n(CC2CC2)c1Cl [Example 394] | < 1000
Cc1c(Br)nc([C@]2(Oc3ccccc3)CC[C@@](C(=O)O)(c3ccc(F)cc3)CC2)n1CC1CC1 [Example 404] | < 1000
O=C(O)[C@]1(c2ccc(F)cc2)CC[C@](Oc2ccccc2)(c2nc3ccccc3n2CC2CC2)CC1 [Example 406] | < 1000
Cc1nc([C@]2(OCC3CC3)CC[C@](C(=O)O)(c3cccnc3)CC2)n(CC2CC2)c1Cl [Example 407] | < 1000
Cc1nc([C@]2(OCC3CC3)CC[C@](C(=O)O)(c3ccc(S(C)(=O)=O)cc3)CC2)n(CC2CC2)c1Cl [Example 408] | < 1000
Cc1nc([C@]2(OCC3CC3)CC[C@](C(=O)O)(c3cccc(OC(F)(F)F)c3)CC2)n(CC2CC2)c1Cl [Example 409] | < 1000
Cc1nc([C@]2(OCC3CC3)CC[C@](C(=O)O)(c3ccc(OC(F)(F)F)cc3)CC2)n(CC2CC2)c1Cl [Example 410] | < 1000
Cc1ccc([C@]2(C(=O)O)CC[C@](OCC3CC3)(c3nc4ccccc4n3CC3CC3)CC2)cc1 [Example 412] | < 1000
O=C(O)[C@]1(c2ccccc2)CC[C@@](OCC2CC2)(c2nc3cccnc3n2CC2CC2)CC1 [Example 448] | < 1000
O=C(O)[C@]1(c2ccccc2)CC[C@](OCC2CC2)(c2nc3cc(Cl)ccc3n2CC2CC2)CC1 [Example 451] | < 1000
O=C(O)[C@]1(c2ccccc2)CC[C@@](OCC2CC2)(c2nc3cc(F)ccc3n2CC2CC2)CC1 [Example 452] | < 1000
O=C(O)[C@]1(c2ccccc2)CC[C@](OCC2CC2)(c2nc3cc(F)ccc3n2CC2CC2)CC1 [Example 453] | < 1000
CS(=O)(=O)c1cccc2nc([C@]3(OCC4CC4)CC[C@](C(=O)O)(c4ccccc4)CC3)n(CC3CC3)c12 [Example 455] | < 1000
